Holding throughout (assay type): cell-based
The target of one assay is T1, EP2 (Homo sapiens, UniProt P43116).
T1 construct: SF295 glioblastoma cells express high endogenous EP2 and no EP4; host or cells: SF295 glioblastoma cells
The experiment in a line: hEP2 cAMP Assay (SF295 glioblastoma cells, HTRF cAMP, PGE2 75 nM). Conditions: antagonistic activity, PGE2 75 nM (EC80). In a few lines:
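IC50 values derive from duplicate-point curves of percent cAMP relative to DMSO, read by HTRF (665/620 nm) against a cAMP calibrator. Compounds (30 μM to 0.01 nM ranges) were given 45 min at room temperature before 30 min with 75 nM PGE2, in EP2-only SF295 cells with 2 mM IBMX.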
In general terms: In TR-FRET formats the signal depends on donor and acceptor labels being close together.

The next assay has as its target T2, EP4 (Homo sapiens, UniProt P35408).
T2 construct: BT549 breast cancer cells, express high endogenous EP4 levels and very low EP2 levels; host or cells: BT549 breast cancer cells
Description: hEP4 cAMP Assay (BT549 breast cancer cells, HTRF cAMP, PGE2 6 nM). Particulars: antagonistic activity, PGE2 6 nM (EC80). The method in brief: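 BT549 cells (endogenous EP4, very low EP2) in HBSS/20 mM HEPES/0.2% BSA/2 mM IBMX, pre-incubated 45 min RT with compound, then stimulated 30 min RT with PGE2 6 nM (EC80). cAMP read by HTRF competitive immunoassay (665/620 nm), converted via calibrator to % of DMSO control; IC50 from duplicate dose-response curves.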

The next assay has as its target T3, PTGER4 (EP4) (Homo sapiens, UniProt P35408).
T3 construct: host or cells: HEK 293 (PathHunter, stably transfected)
The experiment in a line: hEP4 b-Arrestin Assay (PathHunter HEK 293 PTGER4 b-arrestin cells, PGE2 20 nM). Conditions: antagonistic activity, beta-arrestin assay, HEK 293 PTGER4 cells, PGE2 20 nM (EC80); read-out: hEP4 b-arr IC50. In a few lines:
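PathHunter HEK 293 EP4 b-arrestin enzyme-complementation cells preincubated 15 min at 37° C with compound (10 μM-2 nM or 1 μM-0.2 nM), then stimulated 120 min with 20 nM PGE2 (EC80). Chemiluminescence read; IC50 from duplicate % activity vs DMSO, one-site fit, averaged over repeats.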

The target in a further assay is T4, PTGER2 (EP2) (Homo sapiens, UniProt P43116).
T4 construct: host or cells: HEK 293 (PathHunter, stably transfected)
The experiment in a line: hEP2 b-Arrestin Assay (PathHunter HEK 293 PTGER2 b-arrestin cells, PGE2 5 μM). Particulars: antagonistic activity, beta-arrestin assay, HEK 293 PTGER2 cells, PGE2 5 μM (EC80); read-out: hEP2 b-arr IC50. The method in brief:
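PathHunter enzyme-fragment complementation in HEK 293 cells: compounds (10 μM-2 nM or 1 μM-0.2 nM) pre-incubated 15 min at 37 °C, then 5 μM PGE2 (EC80) for 120 min at 37 °C. Chemiluminescence read after 1 h detection; IC50 from duplicate dose-response fits, means of repeats.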

Each structure is given as a SMILES string.

T3 sequence (P35408 whole entry): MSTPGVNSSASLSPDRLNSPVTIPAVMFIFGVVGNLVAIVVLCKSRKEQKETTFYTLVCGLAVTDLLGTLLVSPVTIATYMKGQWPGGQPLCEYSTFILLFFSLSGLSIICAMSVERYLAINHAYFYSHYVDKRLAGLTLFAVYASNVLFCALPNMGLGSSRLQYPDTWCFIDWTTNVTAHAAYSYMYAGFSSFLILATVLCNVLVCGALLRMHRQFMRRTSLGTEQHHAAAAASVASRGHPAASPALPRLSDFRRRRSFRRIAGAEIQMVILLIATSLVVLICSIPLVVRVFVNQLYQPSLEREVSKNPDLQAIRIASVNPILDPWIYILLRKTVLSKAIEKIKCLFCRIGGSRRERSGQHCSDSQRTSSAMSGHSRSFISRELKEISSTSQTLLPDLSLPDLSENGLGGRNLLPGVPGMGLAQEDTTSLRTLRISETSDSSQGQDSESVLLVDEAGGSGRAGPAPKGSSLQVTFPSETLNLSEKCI
T2 sequence (P35408 whole entry): as above
T1 sequence (P43116 whole entry): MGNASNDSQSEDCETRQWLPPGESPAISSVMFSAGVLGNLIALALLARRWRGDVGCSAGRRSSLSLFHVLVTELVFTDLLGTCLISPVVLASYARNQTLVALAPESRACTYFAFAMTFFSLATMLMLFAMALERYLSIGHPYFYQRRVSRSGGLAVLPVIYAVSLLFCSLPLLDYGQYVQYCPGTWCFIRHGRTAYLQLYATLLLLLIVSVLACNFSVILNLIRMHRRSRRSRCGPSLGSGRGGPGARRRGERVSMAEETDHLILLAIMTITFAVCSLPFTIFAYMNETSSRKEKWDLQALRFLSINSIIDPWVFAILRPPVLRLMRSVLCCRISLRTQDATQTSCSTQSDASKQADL
T4 sequence (P43116 whole entry): as above

A word on the IC50: it is the concentration at which inhibition is half-maximal. As for `CCOc1cc(-c2cc(NCCc3c(OC)ccc4ccccc34)ncn2)ccc1-c1noc(=O)[nH]1` [Example 126, 3-(2-Ethoxy-4-{6-[2-(2-methoxy-naphthalen-1-yl)-ethylamino]-pyrimidin-4-yl}-phenyl)-4H-[1,2,4]oxadiazol-5-one], the IC50 at EP2 was 20 nM; against EP4 it was 43 nM; at PTGER4 (EP4) it was 34 nM; at PTGER2 (EP2) it was 5 nM.
As for `CCOc1cc(-c2cc(NCCc3cccc4[nH]ccc34)ncn2)sc1C(=O)O` [Example 39, 3-Ethoxy-5-{6-[2-(1H-indol-4-yl)-ethylamino]-pyrimidin-4-yl}-thiophene-2-carboxylic acid], the concentration for half-maximal inhibition (IC50) stood at 50 nM against EP2, 101 nM against EP4, 386 nM on PTGER4 (EP4) and 81 nM on PTGER2 (EP2).
Taken in the same sequence, the figures for `CCOc1cc(-c2cc(NCCc3ccc(C)c4ccccc34)ncn2)ccc1C(=O)O` [Example 16, 2-Ethoxy-4-{6-[2-(4-methyl-naphthalen-1-yl)-ethylamino]-pyrimidin-4-yl}-benzoic acid] were 176 nM, 268 nM, 290 nM and 143 nM.
For the compound `COc1ccc2ccccc2c1CCNc1cc(-c2cc(OCCN(C)C)c(C(=O)O)s2)ncn1` [Example 157, 3-(2-Dimethylamino-ethoxy)-5-{6-[2-(2-methoxy-naphthalen-1-yl)-ethylamino]-pyrimidin-4-yl}-thiophene-2-carboxylic Acid], the IC50 at EP2 was 143 nM; at EP4 it was 1040 nM; at PTGER4 (EP4) it was 1910 nM; on PTGER2 (EP2), 43 nM.
For `COc1ccc2ccccc2c1CCNc1cc(-c2ccc(C(=O)O)c(OCCO)c2)ncn1` [Example 155, 2-(2-Hydroxy-ethoxy)-4-{6-[2-(2-methoxy-naphthalen-1-yl)-ethylamino]-pyrimidin-4-yl}-benzoic acid], in that order: 16 nM, 296 nM, 2230 nM and 45 nM.
`CCOc1cc(-c2cc(NCCc3cccc4cccnc34)ncn2)sc1C(=O)O` [Example 23, 3-Ethoxy-5-[6-(2-quinolin-8-yl-ethylamino)-pyrimidin-4-yl}-thiophene-2-carboxylic acid]: the concentration for half-maximal inhibition (IC50) at EP2 stood at 248 nM; on EP4, 239 nM; at PTGER4 (EP4), 293 nM; on PTGER2 (EP2) it was 303 nM.
For `CCOc1cc(-c2cc(NCCc3cccc4ccoc34)ncn2)sc1C(=O)O` [Example 35, 5-[6-(2-Benzofuran-7-yl-ethylamino)-pyrimidin-4-yl]-3-ethoxy-thiophene-2-carboxylic acid], the IC50 on EP2 is 76 nM; on EP4, 92 nM; at PTGER4 (EP4), 113 nM; at PTGER2 (EP2), 115 nM.
For `CCOc1cc(-c2cc(NCCc3cc(OC)cc4ccccc34)ncn2)sc1C(=O)O` [Example 42, 3-Ethoxy-5-{6-[2-(3-methoxy-naphthalen-1-yl)-ethylamino]-pyrimidin-4-yl}-thiophene-2-carboxylic acid], the IC50 at EP2 was 31 nM; against EP4, 35 nM; at PTGER4 (EP4), 15 nM; at PTGER2 (EP2), 32 nM.
On to `CCOc1cc(-c2cc(NCCc3ccc(Cl)c4ccccc34)ncn2)sc1C(=O)O` [Example 62, 5-{6-[2-(4-Chloro-naphthalen-1-yl)-ethylamino]-pyrimidin-4-yl}-3-ethoxy-thiophene-2-carboxylic acid], for which the IC50 was 24 nM at EP2, 29 nM on EP4, 19 nM at PTGER4 (EP4) and 32 nM on PTGER2 (EP2).
Regarding `CCOc1cc(-c2cc(NCCc3c(OC)ccc4ccccc34)ncn2)ccc1OCCC(=O)O` [Example 120, 3-(2-Ethoxy-4-{6-[2-(2-methoxy-naphthalen-1-yl)-ethylamino]-pyrimidin-4-yl}-phenoxy)-propionic acid], the IC50 was 88 nM against EP2, 206 nM on EP4, 75 nM on PTGER4 (EP4) and 16 nM at PTGER2 (EP2).
In the case of `CCOc1cc(-c2cc(NCCc3c(OC)ccc4ccccc34)ncn2)sc1C(=O)NS(N)(=O)=O` [Example 135, 3-Ethoxy-5-(6-((2-(2-methoxynaphthalen-1-yl)ethyl)amino)pyrimidin-4-yl)-N-sulfamoylthiophene-2-carboxamide], the IC50 against EP2 stood at 3 nM; against EP4 it was 67 nM; on PTGER4 (EP4) it was 23 nM; at PTGER2 (EP2) it was 5 nM.
With `CCOc1cc(-c2cc(NCCc3c(OC)ccc4c3OCO4)ncn2)sc1C(=O)O` [Example 44, 3-Ethoxy-5-{6-[2-(5-methoxy-benzo[1,3]dioxol-4-yl)-ethylamino]-pyrimidin-4-yl}-thiophene-2-carboxylic acid], the IC50 against EP2 amounted to 37 nM; against EP4, 42 nM; at PTGER4 (EP4) it was 51 nM; on PTGER2 (EP2) it was 36 nM.
`CCOc1cc(-c2cc(NCCc3c(N)ccc4ccccc34)ncn2)sc1C(=O)O` [Example 78, 5-{6-[2-(2-Amino-naphthalen-1-yl)-ethylamino]-pyrimidin-4-yl}-3-ethoxy-thiophene-2-carboxylic acid]: the IC50 on EP2 was found to be 56 nM; on EP4 it was 51 nM; at PTGER4 (EP4), 50 nM; at PTGER2 (EP2), 41 nM.
With `CCOc1cc(-c2cc(NCCc3c(C#N)ccc4ccccc34)ncn2)sc1C(=O)O` [Example 68, 5-{6-[2-(2-Cyano-naphthalen-1-yl)-ethylamino]-pyrimidin-4-yl}-3-ethoxy-thiophene-2-carboxylic acid], the IC50 is 3 nM against EP2, 22 nM against EP4, 24 nM on PTGER4 (EP4) and 7 nM on PTGER2 (EP2).
On to `COc1ccc2ncccc2c1CCNc1cc(-c2cc(C(F)(F)F)c(C(=O)O)s2)ncn1` [Example 81, 5-{6-[2-(6-Methoxy-quinolin-5-yl)-ethylamino]-pyrimidin-4-yl}-3-trifluoromethyl-thiophene-2-carboxylic acid], for which the IC50 at EP2 turned out to be 30 nM; at EP4, 205 nM; at PTGER4 (EP4), 427 nM; on PTGER2 (EP2) it was 116 nM.
Taken in the same sequence, the figures for `CCOc1cc(-c2cc(NCCc3cccc4ccn(C)c34)ncn2)sc1C(=O)O` [Example 24, 3-Ethoxy-5-{6-[2-(1-methyl-1H-indol-7-yl)-ethylamino]-pyrimidin-4-yl}-thiophene-2-carboxylic acid] were 15 nM, 96 nM, 203 nM and 17 nM.
As to `CCOc1cc(-c2cc(NCCc3cccc4ncccc34)ncn2)sc1-c1noc(=O)[nH]1` [Example 188, 3-{3-Ethoxy-5-[6-(2-quinolin-5-yl-ethylamino)-pyrimidin-4-yl]-thiophen-2-yl}-[1,2,4]oxadiazol-5(4H)-one], the IC50 was found to be 324 nM on EP2, 22 nM on EP4, 282 nM on PTGER4 (EP4) and 59 nM at PTGER2 (EP2).
`CCOc1cc(-c2cc(NCCc3c(OC)ccc4nc(C)ccc34)ncn2)sc1C(=O)O` [Example 13, 3-Ethoxy-5-{6-[2-(6-methoxy-2-methyl-quinolin-5-yl)-ethylamino]-pyrimidin-4-yl}-thiophene-2-carboxylic acid]: the IC50 at EP2 was 24 nM; against EP4, 138 nM; on PTGER4 (EP4), 225 nM; at PTGER2 (EP2) it was 25 nM.
For `CCOc1cc(-c2cc(NCCc3c(C)c(C)cc4ccccc34)ncn2)sc1C(=O)O` [Example 12, 5-{6-[2-(2,3-Dimethyl-naphthalen-1-yl)-ethylamino]-pyrimidin-4-yl}-3-ethoxy-thiophene-2-carboxylic acid], in that order: 17 nM, 17 nM, 52 nM and 27 nM.
With `CCOc1cc(-c2cc(NCCc3cccc4[nH]ccc34)ncn2)sc1-c1noc(=O)[nH]1` [Example 137, 3-(3-Ethoxy-5-{6-[2-(1H-indol-4-yl)-ethylamino]-pyrimidin-4-yl}-thiophen-2-yl)-[1,2,4]oxadiazol-5(4H)-one], the IC50 against EP2 stood at 37 nM; against EP4 it was 37 nM; at PTGER4 (EP4), 37 nM; on PTGER2 (EP2), 16 nM.
Turning to `CCOc1cc(-c2cc(NCCc3cccc4cc(C)oc34)ncn2)sc1C(=O)O` [Example 74, 3-Ethoxy-5-{6-[2-(2-methyl-benzofuran-7-yl)-ethylamino]-pyrimidin-4-yl}-thiophene-2-carboxylic acid], the IC50 at EP2 turned out to be 78 nM; on EP4, 88 nM; at PTGER4 (EP4) it was 117 nM; on PTGER2 (EP2), 212 nM.

For the origin of these results see US11446298B2, “Pyrimidine derivatives” (Idorsia Pharmaceuticals Ltd, priority 2017, dated 2022).
